Measured values published in patent US9464117B2, “Herbicide-resistant proteins, encoding genes, and uses thereof” (Beijing Dabeinong Technology Group Co., Ltd., priority 2012, dated 2016).

Legend:
Assay type in all cases: in vivo
[1] = tested on: Arabidopsis T1 plants transformed with added 24DT07 nucleotide sequence; assay: Herbicide resistance effect test of transgenic Arabidopsis T1 plants; conditions: genotype 24DT07-a; for Highly resistant: 560 g ae/ha sprayed (1-fold field concentration), number of plants with growth consistent with blank solvent 7 days after spraying; for Non-resistant: 560 g ae/ha sprayed, number of dead plants 14 days after spraying
Text: (§1) 24DT07 gene was used to transform Arabidopsis for the first time. At first, T1 transformants were selected from the background of un-transformed seeds, using glufosinate-ammonium selection scheme. About 40000 T1 seeds are screened among which 195 strains of T1 generation positive transformants (PAT gene) were identified, i.e. the transformation efficiency was about 0.5%. Herbicide resistance effect tests to 2,4-D dimethyl ammonium salt and agroxone of Arabidopsis T1 plants transformed with 24DT07 nucleotide sequence, substituted 24DT07 nucleotide sequence, truncated 24DT07 nucleotide sequence, added 24DT07 nucleotide sequence, control nucleotide sequence respectively and wild-type Arabidopsis plants were performed after 18 days of planting.
(§2) Arabidopsis T1 plants transformed with 24DT07 nucleotide sequence, substituted 24DT07 nucleotide sequence, truncated 24DT07 nucleotide sequence, added 24DT07 nucleotide sequence and control nucleotide sequence respectively and wild-type Arabidopsis plants were sprayed with 2,4-D dimethyl ammonium salt (560 g ae/ha, 1-fold concentration in field), agroxone (560 g ae/ha, 1-fold concentration in field) and blank solvent (water). Resistance conditions of the plants were counted 7 days and 14 days after spraying. Plants with growth conditions consistent with blank solvent (water) 7 days after spaying were classified as highly resistant plants; Plants with curly rosette leaves 7 days after spaying were classified as moderately resistant plants; Plants incapable of bolting 14 days after spaying were classified as low-resistant plants and the dead plants 14 days after spaying were classified as non-resistant plants. Because each Arabidopsis T1 plant is an independent transformation event, significant differences of individual T1 responses can be expected under a given dose.

[2] = tested on: Arabidopsis T1 plants transformed with 24DT07 nucleotide sequence; assay: as above; conditions: for differences of resistance levels between Arabidopsis T1 plants transformed with 24DT07, substituted, truncated and added 24DT07 nucleotide sequence: comparison of the four 24DT07 genotypes, 560 g ae/ha; for Highly resistant: 560 g ae/ha sprayed (1-fold field concentration), number of plants with growth consistent with blank solvent 7 days after spraying; for Non-resistant: number of dead plants 14 days after spraying
Text: as §1, §2

[3] = tested on: Arabidopsis T1 plants transformed with substituted 24DT07 nucleotide sequence; assay: as above; conditions: genotype 24DT07-i; for Highly resistant: 560 g ae/ha sprayed (1-fold field concentration), number of plants with growth consistent with blank solvent 7 days after spraying; for Non-resistant: 560 g ae/ha sprayed, number of dead plants 14 days after spraying
Text: as §1, §2

[4] = tested on: Arabidopsis T1 plants transformed with truncated 24DT07 nucleotide sequence; assay: as above; conditions: genotype 24DT07-t; for Highly resistant: 560 g ae/ha sprayed (1-fold field concentration), number of plants with growth consistent with blank solvent 7 days after spraying; for Non-resistant: 560 g ae/ha sprayed, number of dead plants 14 days after spraying
Text: as §1, §2

[5] = tested on: maize plants containing 24DT07 nucleotide sequence; assay: Herbicide-resistance effect test of the transgenic corn plants (prop root development); conditions: comparison of the four 24DT07 genotypes; 8960 g ae/ha
Protocol: (§3) Herbicide resistance effects tests to 2,4-D dimethyl ammonium salt and agroxone of maize plants containing 24DT07 nucleotide sequence, 24DT07 substituted nucleotide sequence, 24DT07 truncated nucleotide sequence, 24DT07 added nucleotide sequence, control nucleotide sequence respectively and wild type maize plants (stages V3-V4) were performed respectively.
(§4) Maize plants containing 24DT07 nucleotide sequence, 24DT07 substituted nucleotide sequence, 24DT07 truncated nucleotide sequence, 24DT07 added nucleotide sequence, control nucleotide sequence respectively and wild type maize plants were taken and spayed with 2,4-D dimethyl ammonium salt (8960 g ae/ha, 16-folds concentration in field), agroxone (8960 g ae/ha, 16-folds concentration in field) and blank solvent (water) respectively. Prop root development was counted 21 days after spaying. Three strains (S1, S2, and S3) of corn plants transfected with 24DT07 nucleotide sequence, two strains (S4 and S5) of corn plants transfected with 24DT07 substituted nucleotide sequence, two strains (S6 and S7) of corn plants transfected with 24DT07 truncated nucleotide sequence, two strains (S8 and S9) of corn plants transfected with 24DT07 added nucleotide sequence, two strains (S10 and S11) of corn plants transfected with control nucleotide sequence and 1 strain of wild type (CK) corn were selected and 10-15 plants from each stain were tested.

[6] = tested on: maize plants containing 24DT07 truncated nucleotide sequence; assay: as above; conditions: 8960 g ae/ha sprayed, 21 days after spraying
Protocol: as §3, §4

[7] = tested on: maize plants containing 24DT07 substituted nucleotide sequence; assay: as above; conditions: corn strain S5 (24DT07 substituted); 8960 g ae/ha sprayed; 21 days after spraying
Protocol: as §3, §4

[8] = genotype 24DT07, 560 g ae/ha sprayed
[9] = corn strain S7 (24DT07 truncated)

For `CNC.O=C(O)COc1ccc(Cl)cc1Cl` [2,4-D dimethyl ammonium salt], the Highly resistant [1] was 17, the Non-resistant [1] was 0 and the “differences of resistance levels between Arabidopsis T1 plants transformed with 24DT07, substituted, truncated and added 24DT07 nucleotide sequence” value [2] was “didn't show significant differences”. It also gave a Highly resistant ([2]; genotype 24DT07) of 20, a Non-resistant [2, 8] of 0 and a Highly resistant [3] of 18. For the same molecule, the Non-resistant [3] was 0, the Highly resistant [4] was 16 and the Non-resistant [4] was 0. For the same molecule, the “differences of resistance levels between corn plants transformed with 24DT07, substituted, truncated and added 24DT07 nucleotide sequence” value [5] was “didn't show significant differences”, the “Ratio of the normally developed prop roots” value (shortened to “Ratio”) ([6]; corn strain S6 (24DT07 truncated)) was 92.31% and the “Ratio” value [6, 9] was 93.33%.
`Cc1cc(Cl)ccc1OCC(=O)O` [agroxone] was tested, and the Highly resistant [1] was 15, the Non-resistant [1] was 0 and the “differences of resistance levels between Arabidopsis T1 plants transformed with 24DT07, substituted, truncated and added 24DT07 nucleotide sequence” value [2] was “didn't show significant differences”. The Highly resistant ([2]; genotype 24DT07) was 19, the Non-resistant [2, 8] was 0 and the Moderately resistant ([2]; genotype 24DT07, 560 g ae/ha sprayed, number of plants with curly rosette leaves 7 days after spraying) was 3. The Highly resistant [3] was 17, the Non-resistant [3] was 0 and the Highly resistant [4] was 18. The Non-resistant [4] was 0, the “differences of resistance levels between corn plants transformed with 24DT07, substituted, truncated and added 24DT07 nucleotide sequence” value [5] was “didn't show significant differences” and the “Ratio” value [6, 9] was 91.67%. For the same molecule, the “Ratio” value [7] was 92.86%.
